One assay deals with DLD-1. Put plainly: Cytotoxicity against human DLD1 cells after 72 hrs by MTT colorimetric assay. It counts as functional. The conditions noted are these: DLD-1, 72 h. For orientation: Tetrazolium dyes change colour on reduction, which living cells bring about.
The test system of a further assay is B16. Nature of the assay: Cytotoxicity against mouse B16 cells after 72 hrs by MTT colorimetric assay. It counts as functional. The settings on record: B16, 72 h.
A further assay deals with HeLa. Nature of the assay: Cytotoxicity against human HeLa cells after 72 hrs by MTT colorimetric assay. It counts as functional.
A short description of assay [1]: Cytotoxicity against human A172 cells after 72 hrs by MTT colorimetric assay. It counts as functional. The settings on record: A 172, 72 h.
A short description of assay [2]: Cytotoxicity against human U87 cells after 72 hrs by MTT colorimetric assay. It counts as functional, U-87MG ATCC. The settings on record: U-87 MG.
The next assay has as its system SiHa. Nature of the assay: Cytotoxicity against human SiHa cells after 72 hrs by MTT colorimetric assay. The class given is functional.

Bounds are passed on as bounds.

Drawing on ChEMBL document CHEMBL1154540, “Synthesis of 10-substituted triazolyl artemisinins possessing anticancer activity via Huisgen 1,3-dipolar cylcoaddition” (2009), this text covers GI50 for 14 compounds.

Usually GI50 stands for the concentration giving 50% growth inhibition. A high value points to lower sensitivity of the cells. With `C=C(C)c1cn([C@@H]2O[C@@H]3O[C@@]4(C)CC[C@H]5[C@H](C)CC[C@@H]([C@H]2C)[C@@]35OO4)nn1`, the GI50 worked out at 23000 nM in the assay on DLD-1; 1320 nM in the assay with B16; 310 nM in the assay on HeLa; 1310 nM in assay [1]; 830 nM in assay [2]; 1130 nM in the assay on SiHa.
As to `C[C@@H]1[C@@H](n2cc(-c3ccccc3)nn2)O[C@@H]2O[C@@]3(C)CC[C@H]4[C@H](C)CC[C@@H]1[C@@]24OO3`, the GI50 with DLD-1 worked out at 29700 nM; with B16 it was 8780 nM; with HeLa, 720 nM; in assay [1] it was 2500 nM; in assay [2], 2860 nM; with SiHa it was 3220 nM.
Take `COc1ccc(-c2cn([C@@H]3O[C@@H]4O[C@@]5(C)CC[C@H]6[C@H](C)CC[C@@H]([C@H]3C)[C@@]46OO5)nn2)cc1`: the concentration for 50% growth inhibition (GI50) in the assay with DLD-1 was found to be 6680 nM; in the assay with B16 it was 900 nM; with HeLa it was 560 nM; in assay [1], 1210 nM; in assay [2], 1220 nM; with SiHa it was 350 nM.
As for `C[C@H]1[C@H](n2cc(-c3ccc(F)cc3)nn2)O[C@@H]2O[C@@]3(C)CC[C@H]4[C@H](C)CC[C@@H]1[C@@]24OO3`, the GI50 was 140 nM with DLD-1; 430 nM with B16; 600 nM with HeLa; 420 nM in assay [1]; 340 nM in assay [2]; 350 nM in the assay with SiHa.
Consider `C[C@H]1[C@H](n2cc(-c3cccc(Cl)c3)nn2)O[C@@H]2O[C@@]3(C)CC[C@H]4[C@H](C)CC[C@@H]1[C@@]24OO3`, for which the 50% growth inhibitory concentration (GI50) in the assay with DLD-1 turned out to be 14200 nM; in the assay with B16 it was 60 nM; in the assay with HeLa, 80 nM; in assay [1] it was 370 nM; in assay [2] it was 160 nM; in the assay with SiHa it was 150 nM.
Turning to `C[C@H]1[C@@H](N=[N+]=[N-])O[C@@H]2O[C@@]3(C)CC[C@H]4[C@H](C)CC[C@@H]1[C@@]24OO3`, the GI50 was 9440 nM in the assay with DLD-1; > 50000 nM in the assay on B16; 490 nM with HeLa; 2310 nM in assay [1]; 1970 nM in assay [2]; 1130 nM in the assay on SiHa.
Consider `C[C@H]1[C@H](N=[N+]=[N-])O[C@@H]2O[C@@]3(C)CC[C@H]4[C@H](C)CC[C@@H]1[C@@]24OO3`, for which the GI50 is > 50000 nM in the assay on DLD-1; 1560 nM in the assay with B16; 1930 nM in the assay with HeLa; 890 nM in assay [1]; 1060 nM in assay [2]; 1470 nM in the assay with SiHa.
Regarding `Cc1ccc(-c2cn([C@@H]3O[C@@H]4O[C@@]5(C)CC[C@H]6[C@H](C)CC[C@@H]([C@H]3C)[C@@]46OO5)nn2)cc1`, the GI50 turned out to be 80 nM in the assay with DLD-1; 240 nM in the assay on B16; 50 nM in the assay on HeLa; 330 nM in assay [1]; 110 nM in assay [2]; 150 nM in the assay on SiHa.
`CCCCCc1ccc(-c2cn([C@@H]3O[C@@H]4O[C@@]5(C)CC[C@H]6[C@H](C)CC[C@@H]([C@H]3C)[C@@]46OO5)nn2)cc1`: the GI50 worked out at 30 nM with DLD-1; 80 nM with B16; 30 nM with HeLa; 100 nM in assay [1]; 80 nM in assay [2]; 90 nM in the assay with SiHa.
Regarding `C[C@H]1[C@H](n2cc(-c3ccccc3)nn2)O[C@@H]2O[C@@]3(C)CC[C@H]4[C@H](C)CC[C@@H]1[C@@]24OO3`, the GI50 is 12100 nM with DLD-1; 1250 nM with B16; 210 nM in the assay on HeLa; 450 nM in assay [1]; 430 nM in assay [2]; 540 nM in the assay with SiHa.
`C[C@@H]1[C@@H](N=[N+]=[N-])O[C@@H]2O[C@@]3(C)CC[C@H]4[C@H](C)CC[C@@H]1[C@@]24OO3`: the GI50 with DLD-1 was > 50000 nM; in the assay with B16, > 50000 nM; in the assay with HeLa, > 50000 nM; in assay [1], 16800 nM; in assay [2], 11200 nM; in the assay with SiHa it was 9070 nM.
On to `C[C@H]1[C@H](n2cc(-c3cc(F)cc(F)c3)nn2)O[C@@H]2O[C@@]3(C)CC[C@H]4[C@H](C)CC[C@@H]1[C@@]24OO3`, for which the GI50 with DLD-1 came out at 22900 nM; with B16, 160 nM; in the assay with HeLa it was 140 nM; in assay [1], 290 nM; in assay [2] it was 140 nM; in the assay on SiHa, 200 nM.
With `C[C@H]1[C@@H](n2cc(-c3ccccc3)nn2)O[C@@H]2O[C@@]3(C)CC[C@H]4[C@H](C)CC[C@@H]1[C@@]24OO3`, the GI50 stood at 520 nM with DLD-1; 300 nM with B16; 130 nM with HeLa; 220 nM in assay [1]; 230 nM in assay [2]; 260 nM with SiHa.
`CC(=O)O[C@H]1C(=O)[C@@]2(C)[C@H]([C@H](OC(=O)c3ccccc3)[C@]3(O)C[C@H](OC(=O)[C@H](O)[C@@H](NC(=O)c4ccccc4)c4ccccc4)C(C)=C1C3(C)C)[C@]1(OC(C)=O)CO[C@@H]1C[C@@H]2O` [PACLITAXEL]: the concentration for 50% growth inhibition (GI50) with DLD-1 was found to be 10 nM; with B16, 10 nM; in the assay with HeLa, 20 nM; in assay [1] it was 10 nM; in assay [2], 20 nM; in the assay on SiHa, 30 nM.
